Data on 17 compounds can be found in patent publication US11420936B2, “Hypoxia inducible factor-2(alpha) inhibitors and their use in the treatment of diseases” (priority 2020, dated 2022).

One may read the EC50 as the midpoint of the concentration-response curve.

Chain of HIF-2α/ARNT dimerization (Q99814 whole entry): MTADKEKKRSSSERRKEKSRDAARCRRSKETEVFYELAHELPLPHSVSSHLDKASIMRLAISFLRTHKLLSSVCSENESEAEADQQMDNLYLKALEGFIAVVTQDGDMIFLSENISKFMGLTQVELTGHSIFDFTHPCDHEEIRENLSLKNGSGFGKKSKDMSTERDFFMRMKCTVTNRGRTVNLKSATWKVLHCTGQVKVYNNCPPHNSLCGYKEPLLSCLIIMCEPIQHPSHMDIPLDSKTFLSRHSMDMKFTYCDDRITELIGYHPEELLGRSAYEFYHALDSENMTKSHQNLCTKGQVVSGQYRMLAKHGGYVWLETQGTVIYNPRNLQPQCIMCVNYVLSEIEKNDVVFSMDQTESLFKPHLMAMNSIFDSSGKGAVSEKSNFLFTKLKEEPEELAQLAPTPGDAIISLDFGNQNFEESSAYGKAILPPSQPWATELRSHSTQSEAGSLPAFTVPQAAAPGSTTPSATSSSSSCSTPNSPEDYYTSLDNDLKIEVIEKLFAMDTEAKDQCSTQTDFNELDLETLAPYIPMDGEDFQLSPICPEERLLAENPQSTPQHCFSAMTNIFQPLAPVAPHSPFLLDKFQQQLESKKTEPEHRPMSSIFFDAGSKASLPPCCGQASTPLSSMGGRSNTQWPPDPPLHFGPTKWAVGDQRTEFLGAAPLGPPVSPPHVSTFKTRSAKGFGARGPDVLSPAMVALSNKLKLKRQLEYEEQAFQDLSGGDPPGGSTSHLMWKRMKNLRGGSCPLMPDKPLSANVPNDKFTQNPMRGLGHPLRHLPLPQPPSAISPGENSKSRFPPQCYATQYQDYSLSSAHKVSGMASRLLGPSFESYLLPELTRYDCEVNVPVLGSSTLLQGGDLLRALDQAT

One experiment has as its target HIF-2α/ARNT dimerization (Homo sapiens (Human), UniProt Q99814). The experiment is described as follows: Co-immunoprecipitation assay for inhibition of HIF-2α and ARNT dimerization in PASMC and HPAEC. The class given is cell-based. As to conditions: 0.01 μM, PASMC/HPAEC under hypoxia condition (1% O2). The protocol:
FIG. 1 provides results of a co-immunoprecipitation assay for measuring inhibition of HIF-2α and ARNT dimerization in Primary Pulmonary Artery Smooth Muscle Cells (PASMC) and Human Pulmonary Artery Endothelial Cells (HPAEC).
Primary Pulmonary Artery Smooth Muscle Cells (PASMC, ATCC #PCS-100-023) were cultured in Vascular Cell Basal Medium (ATCC #PCS-100-030) supplemented with Vascular Smooth Muscle Cell Growth Kit (ATCC #PCS-100-042). Primary Pulmonary Artery Endothelial Cells (HPAEC, ATCC #PCS-100-022) were cultured in Vascular Cell Basal Medium (ATCC #PCS-100-030) supplemented with Endothelial Cell Growth Kit-BBE (ATCC #PCS-100-040). 0.5×10^6 cells were seeded into 6-well cell culture plates (Corning #3736) in 2 mL of media and cultured in a 37° C. cell culture incubator with atmospheric levels of oxygen and 5% CO2 overnight. The following day, cells were cultured in normoxia condition (atmospheric levels of oxygen and 5% CO2) or in hypoxia condition (1% O2 and 5% CO2) and treated with dimethyl sulfoxide (DMSO) or Compound 24a at 0.001, 0.01, 0.1, and 1 μM for 24 h.
After treatment, cells were washed with ice-cold PBS (containing compounds as in treatment step). […] Supernatant (cell lysate) was transferred to a new tube and protein concentration was measured by BCA protein assay. […]
Cell lysates were also analyzed by immunoblot (Western analysis). […]
`N#Cc1cc(F)cc(Oc2ccc3c4c2[C@@H](F)[C@@H](F)[C@]4(O)C(F)(F)C3(F)F)c1` [Compound 24a, 3-fluoro-5-(((1R,2S,2aS)-1,2,3,3,4,4-hexafluoro-2a-hydroxy-2,2a,3,4-tetrahydro-1H-cyclopenta[cd]inden-7-yl)oxy)benzonitrile]: the “Disruption of HIF-2α/ARNT dimerization at 0.01 μM” value is reported as “efficiently disrupt the HIF-2α/ARNT dimerization”.

The experiment is the same for the next values; noted with them: PASMC and HPAEC, 0.001, 0.01, 0.1 and 1 μM for 24 h, FIG. 1.
Take `N#Cc1cc(F)cc(Oc2ccc3c4c2[C@@H](F)[C@@H](F)[C@]4(O)C(F)(F)C3(F)F)c1` [Compound 24a, 3-fluoro-5-(((1R,2S,2aS)-1,2,3,3,4,4-hexafluoro-2a-hydroxy-2,2a,3,4-tetrahydro-1H-cyclopenta[cd]inden-7-yl)oxy)benzonitrile]: the “Disruption of HIF-2α/ARNT dimerization (HIF-2α protein co-precipitated with ARNT)” value is “reduced in the lysate of cells treated with Compound 24a in a dose-dependent manner”.

The target in a further experiment is HIF-2α (Homo sapiens (Human), UniProt Q99814). Briefly: cell-based.
Chain of HIF-2α (Q99814 whole entry): as above
Details: not given
The class given is cell-based. On the procedure: The ability of the disclosed compounds to inhibit HIF-2α was measured by determining VEGF expression in 786-O cells. About 7500 786-O cells were seeded into each well of a 96-well, white, clear bottom plate (07-200-566, Fisher Scientific) with 200 ul growth medium. Four hours later, compounds were dispensed into wells by Tecan D300e digital dispenser with starting concentration of 10 uM and ½ log of dilution down to 1 nM as final concentration. Each concentration of treatment was performed in duplicate. About 20 hours later, medium was removed and fresh medium was added, followed by compounds treatment as described above. 24 hours later, cell culture medium was collected to determine VEGF concentration using an ELISA kit (R&D systems, cat #DVE00) following the manufacturer's instruction.
The EC50 is calculated by GraphPad Prism using the dose-response-inhibition (four parameter) equation. The plate with cells was then subjected to CellTiter-Glo luminescence cell viability assay (Promega) to determine the effect of these compounds on cell numbers after the above treatment.
Compound `[2H]C1([2H])[C@@]2(O)c3c(ccc(Oc4cc(F)cc(C#N)c4)c3[C@@]1([2H])F)C(F)(F)C2(F)F` [Compound 21, 3-fluoro-5-(((1S,2aR)-1,3,3,4,4-pentafluoro-2a-hydroxy-2,2a,3,4-tetrahydro-1H-cyclopenta[cd]inden-7-yl-1,2,2-d3)oxy)benzonitrile] showed an EC50 of 0.006 µM.

The experiment is the same for the next values; noted with them: inhibition of VEGF expression in 786-O cells, ELISA of culture medium; read-out: EC50.
Regarding `C=C1CC2(O)c3c(ccc(Oc4cc(F)cc(C#N)c4)c31)C(F)(F)C2(F)F` (stereo not shown) [Compound 1, 3-fluoro-5-((3,3,4,4-tetrafluoro-2a-hydroxy-1-methylene-2,2a,3,4-tetrahydro-1H-cyclopenta[cd]inden-7-yl)oxy)benzonitrile], the EC50 came out at 0.013 µM.

In the case of `N#Cc1cc(F)cc(Oc2ccc3c4c2C(F)CC4(O)C(F)(F)C3(F)F)c1` (stereo not shown) [Compound 4, 3-fluoro-5-((1,3,3,4,4-pentafluoro-2a-hydroxy-2,2a,3,4-tetrahydro-1H-cyclopenta[cd]inden-7-yl)oxy)benzonitrile], the concentration giving a half-maximal response (EC50) worked out at 0.01 µM.

With `N#Cc1cc(F)cc(Oc2ccc3c4c2CCC4(O)C(F)(F)C3(F)F)c1` (stereo not shown) [Compound 13, 3-fluoro-5-((3,3,4,4-tetrafluoro-2a-hydroxy-2,2a,3,4-tetrahydro-1H-cyclopenta[cd]inden-7-yl)oxy)benzonitrile], the concentration for a half-maximal effect (EC50) came to 0.33 µM.

`N#Cc1cc(F)cc(Oc2ccc3c4c2[C@H](F)C[C@]4(O)C(F)(F)C3(F)F)c1` [Compound 7, 3-fluoro-5-(((1R,2aR)-1,3,3,4,4-pentafluoro-2a-hydroxy-2,2a,3,4-tetrahydro-1H-cyclopenta[cd]inden-7-yl)oxy)benzonitrile]: the EC50 was determined as 2.1 µM.

`OC12CC(F)c3c(Oc4cncc(F)c4)ccc(c31)C(F)(F)C2(F)F` (stereo not shown) [Compound 8, 1,3,3,4,4-pentafluoro-7-((5-fluoropyridin-3-yl)oxy)-1,2,3,4-tetrahydro-2aH-cyclopenta[cd]inden-2a-ol]: the EC50 was 0.32 µM.

For `N#Cc1cc(F)cc(Oc2ccc3c4c2[C@@H](F)[C@@H](F)[C@]4(O)C(F)(F)C3(F)F)c1` [Compound 24a, 3-fluoro-5-(((1R,2S,2aS)-1,2,3,3,4,4-hexafluoro-2a-hydroxy-2,2a,3,4-tetrahydro-1H-cyclopenta[cd]inden-7-yl)oxy)benzonitrile], the EC50 was determined as 0.002 µM.

Turning to `N#Cc1cc(F)cc(Oc2ccc3c4c2C(F)CC4(N)C(F)(F)C3(F)F)c1` (stereo not shown) [Compound 14, 3-((2a-amino-1,3,3,4,4-pentafluoro-2,2a,3,4-tetrahydro-1H-cyclopenta[cd]inden-7-yl)oxy)-5-fluorobenzonitrile], the concentration for a half-maximal effect (EC50) was 0.63 µM.

`N#Cc1cc(F)cc(Oc2ccc3c4c2[C@@H](F)[C@H](F)[C@]4(O)C(F)(F)C3(F)F)c1` [Compound 24b, 3-fluoro-5-(((1R,2R,2aS)-1,2,3,3,4,4-hexafluoro-2a-hydroxy-2,2a,3,4-tetrahydro-1H-cyclopenta[cd]inden-7-yl)oxy)benzonitrile]: the half-maximal effective concentration (EC50) was 0.011 µM.

As for `N#Cc1cc(F)cc(Oc2ccc3c4c2CC(F)(F)C4(O)CC3F)c1` (stereo not shown) [Compound 19, 3-fluoro-5-((1,3,3-trifluoro-2a-hydroxy-2,2a,3,4-tetrahydro-1H-cyclopenta[cd]inden-5-yl)oxy)benzonitrile], the EC50 came out at 4.1 µM.

Regarding `N#Cc1cc(F)cc(Oc2ccc3c4c2[C@@H](F)C[C@]4(O)C(F)(F)C3(F)F)c1` [Compound 5, 3-fluoro-5-(((1S,2aR)-1,3,3,4,4-pentafluoro-2a-hydroxy-2,2a,3,4-tetrahydro-1H-cyclopenta[cd]inden-7-yl)oxy)benzonitrile], the EC50 came out at 0.006 µM.

On to `CC1(O)CC2(O)c3c(ccc(Oc4cc(F)cc(C#N)c4)c31)C(F)(F)C2(F)F` (stereo not shown) [Compound 11, 3-fluoro-5-((3,3,4,4-tetrafluoro-1,2a-dihydroxy-1-methyl-2,2a,3,4-tetrahydro-1H-cyclopenta[cd]inden-7-yl)oxy)benzonitrile], for which the half-maximal effective concentration (EC50) is over 5 µM.

Take `C=C1C[C@@]2(O)c3c(ccc(Oc4cc(F)cc(C#N)c4)c31)C(F)(F)C2(F)F` [Compound 23a, (R)-3-fluoro-5-((3,3,4,4-tetrafluoro-2a-hydroxy-1-methylene-2,2a,3,4-tetrahydro-1H-cyclopenta[cd]inden-7-yl)oxy)benzonitrile]: the EC50 came to 0.007 µM.

As for `N#Cc1cc(F)cc(Oc2ccc3c4c2C2(CC2)CC4(O)C(F)(F)C3(F)F)c1` (stereo not shown) [Compound 9, 3-fluoro-5-((3,3,4,4-tetrafluoro-2a-hydroxy-2,2a,3,4-tetrahydrospiro[cyclopenta[cd]indene-1,1′-cyclopropan]-7-yl)oxy)benzonitrile], the concentration for a half-maximal effect (EC50) was 0.17 µM.

For `CC1(F)CC2(O)c3c(ccc(Oc4cc(F)cc(C#N)c4)c31)C(F)(F)C2(F)F` (stereo not shown) [Compound 12, 3-fluoro-5-((1,3,3,4,4-pentafluoro-2a-hydroxy-1-methyl-2,2a,3,4-tetrahydro-1H-cyclopenta[cd]inden-7-yl)oxy)benzonitrile], the concentration for a half-maximal effect (EC50) is 0.1 µM.

For `N#Cc1cc(F)cc(Oc2ccc3c4c2C(F)(F)CC4(F)C(F)(F)C3(F)F)c1` (stereo not shown) [Compound 15, 3-fluoro-5-((1,1,2a,3,3,4,4-heptafluoro-2,2a,3,4-tetrahydro-1H-cyclopenta[cd]inden-7-yl)oxy)benzonitrile], the concentration for a half-maximal effect (EC50) is over 5 µM.

Consider `CC1CC2(O)c3c(ccc(Oc4cc(F)cc(C#N)c4)c31)C(F)(F)C2(F)F` (stereo not shown) [Compound 10, 3-fluoro-5-((3,3,4,4-tetrafluoro-2a-hydroxy-1-methyl-2,2a,3,4-tetrahydro-1H-cyclopenta[cd]inden-7-yl)oxy)benzonitrile], for which the concentration for a half-maximal effect (EC50) amounted to 0.41 µM.
